# Experimental data from ChEMBL document CHEMBL3507680, “University of Dundee, Gates Library screen for HepG2 cell viability”.
# Test: Human HepG2 cell viability assay in 384 well format
# Type: toxicity, cell-based
# Parameters: dose 125 nL, time 70.5 hour; concentration not given beside the values
# Conditions: HepG2 cells, read-out: Inhibition
row,Structure (SMILES),cytotoxicity at 70.5 h [%]
1,O=C(C1CCCc2[nH]ncc21)N1CCCCCC1 (centres undefined),-7.74
2,Cc1ccc(C(=O)N2CCC3(CCCC3)CC2)c(=O)[nH]1,-99.3
3,Cn1ncnc1-c1ccnc(N2CCC(C(O)c3cccs3)CC2)n1 (centres undefined),-10.9
4,O=C(C1=CCCC1)N1C[C@H](Oc2cccnc2)[C@H]2OCCC[C@H]21,-4.92
5,CC(=O)N1CCC2(CCN(CC3CCCCC3)C2)CC1,3.48
6,CCOC(C)c1nccn1CCC(=O)Nc1cc(C)on1 (centres undefined),6.06
7,COCCN1CCN(c2cccc(C)n2)Cc2ccc(C)nc21,2.66
8,CCc1nnsc1C(=O)N1CCCC(COc2ccc(F)cc2)C1 (centres undefined),-4.43
9,Cc1cccc(Nc2c(C#N)c(=O)n(C)c(=O)n2C)c1,-3.97
10,Cc1ccc(C)c(OCc2nnc(SCC3CCCN(C)C3)o2)c1 (centres undefined),-5.12
11,OC(COCc1cccs1)CN1CCc2c(ncn2C2CC2)C1 (centres undefined),-2.16
12,CCOc1ccc(C(=O)CCC(=O)NCc2cncn2CC)cc1C,40.5
13,O=C(NCCN1CCCCC1)c1nc(-c2ccc3cc[nH]c3c2)no1,-4.34
14,CC(NC(=O)NCC1(c2ccccc2)CCC1)c1nncn1C (centres undefined),-16.7
15,c1cncc(COCC2CN(Cc3ccncc3)Cc3ccnn3C2)c1 (centres undefined),1.86
16,Cc1ccccc1-n1cnnc1SCC1CCCCO1 (centres undefined),-9.11
17,Cc1nc(C2CCCN2C(=O)c2cc3c(s2)CCC3)no1 (centres undefined),-6.34
18,Cc1ccoc1-c1nnc(CNCC2CCCN2c2cccnn2)o1 (centres undefined),-4.49
19,N#Cc1ccccc1Cn1cncn1,9.79
20,CC(C(=O)Nc1ccc(Cl)cn1)N1CCc2nn(C)c(=O)cc2C1 (centres undefined),-2.78
21,Cc1nccnc1N1CCC2(CCCN(C3CCOCC3)C2=O)C1 (centres undefined),7.43
22,CCCN1CCN(Cc2nccn2CC)C(C)C1 (centres undefined),19.6
23,OC1(CN2CCC(Cc3ccccc3)CC2)CCC1,-4.49

row,Structure (SMILES),cytotoxicity at 70.5 h [%]
1,COc1ccc(-c2noc(CN3CCN(c4cnccn4)CC3)n2)cc1,-16.7
2,Cn1cncc1CN1CC[C@](C)(O)[C@@H](Oc2cccc(F)c2)C1,13.9
3,Cc1ncsc1CN1Cc2cnn(C)c2C(COCC2CC2)C1 (centres undefined),-1.88
4,Cc1cc(C)c2cc(CNCCCN3CCOCC3)c(=O)[nH]c2c1,-7.01
5,CN(C)C(=O)c1nc2c(s1)CCN(C(=O)c1ccc(Cl)cc1)CC2,-2.44
6,Cn1cc(Cl)c(CN2CCn3nc(C(=O)N4CCCC4)cc3C2)n1,-4.39
7,CC(C)c1nccn1-c1cccc(C2CCCN(C3CCCC3)C2)n1 (centres undefined),-12.4
8,C[C@H](NC(=O)N1CCN(c2ccc(Cl)cc2)CC1)C(=O)N1CCSCC1,-14.7
9,Cc1cc(C)n(CCN2CCC(N(C)Cc3nnc(C)n3C)C2)n1 (centres undefined),-0.44
10,Cc1ccc(C(=O)N2C[C@H]3CCC[C@@]3(COCC3CCOCC3)C2)o1,-5.19
11,Cc1noc2ncc(C(=O)NCC3CCN(C(C)C)C3)cc12 (centres undefined),-4.09
12,Cc1cccc(COc2ccc(C(C)NC(=O)CNC(N)=O)cc2)c1 (centres undefined),-0.269
13,CC(NC(=O)N(C)Cc1ccsc1)c1ccc2c(c1)OCO2 (centres undefined),-14.1
14,O=C1[C@@H]2CCN(C3CCOCC3)C[C@@H]2OCCN1Cc1cccnc1,-16
15,CCn1ccnc1C1CCN(C(=O)Nc2ccc(OC)cc2)CC1,29.5
16,CSCC(C)(O)CNc1ncccc1C(F)(F)F (centres undefined),1.25
17,O=C(Nc1cccnc1-n1cc(Cl)cn1)C1CCCC1,-29.5
18,O=C(CCc1ccco1)N1CCc2[nH]nc(COc3ccccc3)c2C1,51.5
19,Cc1ccc(CNC(=O)N2CCc3ccccc3C2CO)s1 (centres undefined),-5.32
20,O=C(NCc1ccco1)[C@H]1COC[C@H]2CN(Cc3ccccn3)C[C@H]21,-8.72
21,Cc1nc(C)n(CC(C)C(=O)N2CCCN(C3CCCC3)CC2)n1 (centres undefined),-6.07
22,Cc1nnsc1C(=O)N1CCN(CC2CC2)[C@@H]2CS(=O)(=O)C[C@@H]21,-13.8
23,Cc1nc(-c2ccc(CNS(=O)(=O)N(C)C)cc2)ccc1C(N)=O,-2.19

row,Structure (SMILES),cytotoxicity at 70.5 h [%]
1,CO[C@H]1C[C@@H](O)C12CCN(CCCOc1ccc(C(N)=O)cc1)CC2,-2.22
2,CS(=O)(=O)C1CCN(S(=O)(=O)c2ccc(F)c(F)c2)C1 (centres undefined),-5.07
3,CCc1nccn1C1CCCN(C(=O)c2ccoc2C)C1 (centres undefined),1.06
4,CC(=O)N1CCCCC1c1nc(C)cc(-c2ccccc2C(=O)O)n1 (centres undefined),-1.42
5,CCc1nnc2n1CCN(C(=O)C1CCC(n3cccc3)CC1)C2 (centres undefined),-6.9
6,CC(C)NC(=O)CNC(C)COc1ccccc1 (centres undefined),-12.1
7,O[C@@H]1C[C@@](CNCc2cccc(Cl)c2)(COc2cccnc2)C[C@@H]1O,-2.94
8,Cc1ccc(-c2n[nH]cc2CNCC2CCN(CC(C)O)CC2)cc1 (centres undefined),-1.53
9,Cc1nc(C(C)C)sc1C(=O)NCCSc1ccccn1,-11.3
10,Cc1nc(CN(C)S(=O)(=O)c2ccc(F)cc2Br)no1,14.6
11,c1cncc(CN2CCC3(CCCN(c4nncs4)C3)C2)c1 (centres undefined),-7.53
12,COc1ccccc1C1(C(=O)N2CCCC(c3cc(C)[nH]n3)C2)CC1 (centres undefined),-0.122
13,COCCN(C)C(=O)Cn1cccc(OC)c1=O,-9.38
14,CN1N=C(C(=O)N2CCCN(c3ncccc3C#N)CC2)CCC1=O,3.72
15,c1ncn(CC2CCCN(Cc3nc(-c4ccoc4)no3)C2)n1 (centres undefined),-10.5
16,O=C(C1CC1)N1CCN(C(=O)C2CC(=O)N(c3ccccc3Br)C2)CC1 (centres undefined),26.2
17,CCC[C@H]1CN(S(=O)(=O)c2ccc(-c3c(C)noc3C)s2)C[C@@H]1N,-4.66
18,CC1N(c2cnn(C)c2)C(=O)COC12CCN(CC1CC1)CC2 (centres undefined),-3.07
19,CNc1nc2c(s1)C(=O)CN(C(=O)[C@@H](N)Cc1cccc(OC)c1)C2,-5.78
20,COCC(=O)NCc1cc(=O)n2c(n1)CN(Cc1ccoc1)CCC2,1.73
21,CCCc1cc(N2CCC(N[C@H]3CC[C@H](O)CC3)CC2)nc(C)n1,-4.54
22,O=C1[C@@H]2CN(c3ncccc3Cl)C[C@]2(C(=O)O)CN1CC1CC1,-7.05
23,CCn1cnnc1C1CCN(C(=O)c2cnn(C(C)(C)C)c2)CC1,-5.89

row,Structure (SMILES),cytotoxicity at 70.5 h [%]
1,N#CC1C(=O)Nc2c(cnn2C2CCCC2)C12CCCC2 (centres undefined),-2.82
2,C=C(C)Cn1c(=O)nc(N)c2c(-c3ccc(OC)cc3)csc21,-9.64
3,COCc1nc(C(=O)N2CCCC(n3ccnc3C)C2)cs1 (centres undefined),-18.6
4,COc1ccc(-n2ccc(C(=O)NCCN3CCC(C)CC3)n2)cc1,-5.24
5,CCc1ncc2c(n1)CN(CC(=O)Nc1cc(C)on1)CC2,12
6,CC(C)c1nc(C2CCCN(c3ncccn3)C2)no1 (centres undefined),-10.3
7,Cc1csc2c(N3CCC(Cn4cc(C(C)(C)O)nn4)CC3)ncnc12,-9.53
8,COc1ccc(CC(C)Nc2cccc(SC)c2)cc1 (centres undefined),-5.87
9,CC(C)c1nc(CN2CCCC2c2cnn(C)c2)cs1 (centres undefined),-2.88
10,COCCNC(=O)Cn1ccc2ccc(F)cc21,-3.63
11,Cc1nc(Cn2c3c(ccc2=O)CC(NC(C)C)CC3)cs1 (centres undefined),-9.3
12,CC(C)(CNc1ccc(S(=O)(=O)C(F)F)cc1)N1CCOCC1,18.8
13,Cc1ccc(N2C[C@H]3CCC[C@@H](CN4CCOCC4)[C@H]3C2)nn1,-1.56
14,CCN(CC)c1ccc(NC(=O)N2CCc3sccc3C2)cn1,-2.76
15,CCOCCn1nc(C)cc1C(=O)N1CC[C@@](O)(COC)C(C)(C)C1,25.9
16,Cn1ncnc1NS(=O)(=O)c1ccc(F)cc1Cl,-1.04
17,CC(C)c1nn(C)c(N(C)C)c1CNCCC(=O)N(C)C,-2.45
18,COc1ccc(F)cc1S(=O)(=O)N1CCN(CCn2ccnc2)CC1,-12.2
19,O=C1NC(C(=O)NCc2cccnc2Oc2ccc(F)cc2F)CO1 (centres undefined),-18.3
20,CC(C)[C@@H]1CN(S(=O)(=O)c2cccc(C(=O)O)c2)C[C@H]1N(C)C,17.4
21,O=C(Cn1ccc2ccccc21)Nc1cc(N2CCCC2)ncn1,3.21
22,COc1cccc(CN2CCCC(Nc3cccc(F)c3)C2)c1O (centres undefined),-4.92
23,Cc1cc(C(=O)N2CCCC2c2c(C)nn(C)c2C)no1 (centres undefined),-10.1

row,Structure (SMILES),cytotoxicity at 70.5 h [%]
1,COCCNc1cccc(C2CCCN2)n1 (centres undefined),-6.3
2,CC(C)n1ccnc1CN1CCOC(CC2CCCCC2)C1 (centres undefined),5.36
3,COc1ccc(CCN)cc1-c1ccc(S(C)(=O)=O)cc1,-8.83
4,COc1ccc(CNc2nc(N3CCOCC3)ns2)cc1,-10.7
5,Cc1ccsc1C(=O)Nc1ccc(N2CCC(O)CC2)c(C#N)c1,-0.649
6,CSCCC1c2nc[nH]c2CCN1Cc1cc(Cl)ccc1O (centres undefined),-5.87
7,CC(=O)c1ccc(S(=O)(=O)NCC2CCN(c3cnccn3)CC2)cc1,-4.91
8,COc1c(C)cnc(CN2CCC(C(=O)N(C)C)CC2)c1C,-23.8
9,CNc1cc(N2CCCC2CNCc2cnc(C)s2)ncn1 (centres undefined),2.89
10,O=C(c1cnc(C2CC2)s1)N1CCCCC1Cn1cccn1 (centres undefined),0.664
11,CC(C)CCN1CCN(c2ncnc3nc(N)ccc23)CC1,-2.35
12,Cc1ncsc1C(=O)N1CCN(Cc2ccccc2)CC1C (centres undefined),2.52
13,COCCC1(CO)CCCN(C(=O)c2cc(=O)[nH]c(=O)[nH]2)C1 (centres undefined),-8.57
14,CN(Cc1ccsc1)C(=O)Cn1c(CS(C)(=O)=O)nc2ccccc21,-1.3
15,COc1ccc(COCC(=O)N2CCCC(n3cncn3)C2)cc1 (centres undefined),19.2
16,COc1ccc(Br)cc1CN(C)c1nc2c(cnn2C)c(=O)[nH]1,-10.6
17,CN(Cc1ccc(C#N)cc1)Cc1noc(C(C)(C)C)n1,-10.4
18,CN1CCc2[nH]nc(C(=O)N3CCC4(CN(C)C(=O)O4)C3)c2C1 (centres undefined),-6.62
19,COCC(=O)N1CCc2nc(C(=O)Nc3cccnc3)sc2CC1,-2.18
20,CSc1nccc(N2CCC3(CCCN(Cc4ccc(F)cc4)C3)C2)n1 (centres undefined),-3.25
21,CCOc1ccnc(N2CCN(C(=O)C(C)(C)C#N)CC2)n1,-12.5
22,COc1ccc(CNC(=O)NCC(=O)NC2CC2)c(C(F)(F)F)c1,21.2
